The source made the active and inactive calls. No cut-off for these calls is given here.
Legend:
[1] = molecular target: Epidermal growth factor receptor (Homo sapiens, UniProt P00533); test: Inhibition of EGFR (unknown origin) assessed as incorporation of 33Pi after 1 hr by ELISA
A498 = test: Antiproliferative activity against human A498 cells expressing EGFR and Src after 48 hrs by SRB assay; type: functional, cell-based; conditions: A498, 48 h
KB = test: Antiproliferative activity against human KB cells expressing EGFR and Src after 48 hrs by SRB assay; type: functional, cell-based
[2] = tested on: Lewis lung carcinoma cell line; test: Antitumor activity against mouse LLC cells allografted in SCID mouse assessed as extension of survival period at 100 mg/kg, po qd for 14 days; type: functional, organism-based
Mus musculus [3] = test: Toxicity in mouse LLC cells allografted SCID mouse assessed as change in body weight at 100 mg/kg, po qd for 14 days; type: organism-based; conditions: in vivo, 336 h
[4] = tested on: Lewis lung carcinoma cell line; test: Antitumor activity against mouse LLC cells allografted in SCID mouse assessed as inhibition of tumor growth at 100 mg/kg, po qd for 14 days; type: functional, organism-based
Mus musculus [5] = test: Toxicity in mouse LLC cells allografted SCID mouse assessed as mortality at 100 mg/kg, po qd for 14 days; type: organism-based; conditions: in vivo, 336 h

Sequence of Epidermal growth factor receptor (P00533 whole entry): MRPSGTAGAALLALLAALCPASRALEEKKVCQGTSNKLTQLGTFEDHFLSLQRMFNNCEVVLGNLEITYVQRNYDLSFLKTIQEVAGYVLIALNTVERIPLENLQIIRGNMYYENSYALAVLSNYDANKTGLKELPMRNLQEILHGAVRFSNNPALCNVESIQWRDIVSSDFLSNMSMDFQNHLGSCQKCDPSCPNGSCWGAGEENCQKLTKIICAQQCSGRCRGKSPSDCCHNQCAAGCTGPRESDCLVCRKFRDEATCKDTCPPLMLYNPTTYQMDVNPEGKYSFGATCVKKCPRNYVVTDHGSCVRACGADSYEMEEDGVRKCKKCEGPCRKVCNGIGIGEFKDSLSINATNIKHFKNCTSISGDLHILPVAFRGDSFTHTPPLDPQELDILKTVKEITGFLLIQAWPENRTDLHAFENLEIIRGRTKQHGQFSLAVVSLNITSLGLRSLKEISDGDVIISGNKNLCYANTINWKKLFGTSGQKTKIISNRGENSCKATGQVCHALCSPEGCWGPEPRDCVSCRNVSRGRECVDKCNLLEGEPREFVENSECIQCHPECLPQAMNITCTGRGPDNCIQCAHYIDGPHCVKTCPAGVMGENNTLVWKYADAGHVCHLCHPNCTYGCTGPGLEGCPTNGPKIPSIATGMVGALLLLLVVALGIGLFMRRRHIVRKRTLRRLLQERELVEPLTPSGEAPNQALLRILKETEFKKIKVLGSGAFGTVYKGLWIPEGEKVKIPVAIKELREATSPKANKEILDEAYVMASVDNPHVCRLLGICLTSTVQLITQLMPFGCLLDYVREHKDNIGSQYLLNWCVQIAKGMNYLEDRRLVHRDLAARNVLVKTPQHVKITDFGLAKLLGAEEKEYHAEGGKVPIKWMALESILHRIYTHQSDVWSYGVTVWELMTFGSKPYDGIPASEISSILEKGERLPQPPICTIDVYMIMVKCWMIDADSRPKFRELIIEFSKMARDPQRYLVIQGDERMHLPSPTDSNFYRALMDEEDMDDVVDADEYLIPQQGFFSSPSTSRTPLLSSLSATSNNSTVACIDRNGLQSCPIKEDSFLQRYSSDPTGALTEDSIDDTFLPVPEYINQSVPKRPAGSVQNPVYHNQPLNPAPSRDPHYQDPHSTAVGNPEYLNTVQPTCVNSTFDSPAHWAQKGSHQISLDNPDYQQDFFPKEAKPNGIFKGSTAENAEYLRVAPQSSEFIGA

| SMILES | IC50 [1] [nM] | IC50 (A498) [µM] | IC50 (KB) [µM] | also measured |
| --- | --- | --- | --- | --- |
| COCCn1c(=O)oc2cc3ncnc(Nc4ccc(OC)c(OC)c4)c3cc21 | 5500 |  |  |  |
| CCOC(=O)CCCn1c(=O)oc2cc3ncnc(Nc4ccc(F)c(F)c4)c3cc21 | 140 | 36.4 | 17.9 |  |
| CCOC(=O)CCCn1c(=O)oc2cc3ncnc(NCc4ccccc4)c3cc21 | > 10000 |  |  |  |
| CCOC(=O)CCCn1c(=O)oc2cc3ncnc(Nc4ccc(C(=O)OCc5ccc(Cl)cc5)cc4)c3cc21 |  | 8.7 | 5.5 |  |
| COCCn1c(=O)oc2cc3ncnc(Nc4cccc(C(C)=O)c4)c3cc21 | 560 |  |  |  |
| CCOC(=O)CCCn1c(=O)oc2cc3ncnc(Nc4ccc(OCc5ccccn5)cc4)c3cc21 |  | 47 | 16.6 |  |
| CCOC(=O)CCCn1c(=O)oc2cc3ncnc(Nc4ccc(F)c(Cl)c4)c3cc21 | 7800 |  |  |  |
| COCCn1c(=O)oc2cc3ncnc(Nc4ccc(OCc5ccc(Cl)cc5)c(Cl)c4)c3cc21 | 1300 | 6.2 | 6.1 |  |
| COCCn1c(=O)oc2cc3ncnc(Nc4cccc(OC(C)C)c4)c3cc21 | > 10000 |  |  |  |
| CCOC(=O)CCCn1c(=O)oc2cc3ncnc(Nc4ccc(OCc5ccc(Cl)cc5)c(Cl)c4)c3cc21 | 53 |  |  |  |
| C#Cc1cccc(Nc2ncnc3cc4oc(=O)n(CCCC(=O)OCC)c4cc23)c1 | 5700 |  |  |  |
| CCOC(=O)CCCn1c(=O)oc2cc3ncnc(Nc4cc(C(=O)OCC)ccc4O)c3cc21 | 7.3 | 61.6 | 19.5 |  |
| CCOC(=O)CCCn1c(=O)oc2cc3ncnc(Nc4ccc(O)cc4)c3cc21 | 20 | 15.2 | 11.1 |  |
| CCOC(=O)CCCn1c(=O)oc2cc3ncnc(Nc4ccc(C(C)(C)C)cc4)c3cc21 | > 10000 |  |  |  |
| CCOC(=O)CCCn1c(=O)oc2cc3ncnc(Nc4ccccc4)c3cc21 | > 10000 |  |  |  |
| CCOC(=O)CCCn1c(=O)oc2cc3ncnc(Nc4ccc(S(N)(=O)=O)cc4)c3cc21 | > 10000 | 8 | 18.7 |  |
| C#Cc1cccc(Nc2ncnc3cc4oc(=O)n(CCOC)c4cc23)c1 | 190 |  |  |  |
| CCOC(=O)CCCn1c(=O)oc2cc3ncnc(N[C@@H](C)c4ccccc4)c3cc21 | > 10000 |  |  |  |
| CCOC(=O)CCCn1c(=O)oc2cc3ncnc(Nc4ccc5[nH]ncc5c4)c3cc21 | 130 | 26.8 | 38.4 |  |
| CCOC(=O)CCCn1c(=O)oc2cc3ncnc(Nc4ccc(OCc5ccc(OC)cc5)c(Cl)c4)c3cc21 | > 10000 |  |  |  |

| SMILES | IC50 [1] [nM] | IC50 (A498) [µM] | IC50 (KB) [µM] | also measured |
| --- | --- | --- | --- | --- |
| CCOC(=O)CCCn1c(=O)oc2cc3ncnc(Nc4ccc(Cl)cc4)c3cc21 | 1200 |  |  |  |
| COCCn1c(=O)oc2cc3ncnc(Nc4ccc(F)c(Cl)c4)c3cc21 | 470 |  |  |  |
| CCOC(=O)CCCn1c(=O)oc2cc3ncnc(Nc4ccc(OCc5nccc(OCC(F)(F)F)c5C)cc4)c3cc21 | 780 |  |  |  |
| CCOC(=O)CCCn1c(=O)oc2cc3ncnc(Nc4cc(C)cc(C)c4)c3cc21 | 1500 |  |  |  |
| COCCn1c(=O)oc2cc3ncnc(Nc4ccc(C(C)(C)C)cc4)c3cc21 | > 10000 |  |  |  |
| CCOC(=O)c1ccc(O)c(Nc2ncnc3cc4oc(=O)n(CCOC)c4cc23)c1 | 440 | 17.1 | 6.3 |  |
| CCOC(=O)CCCn1c(=O)oc2cc3ncnc(Nc4ccc(C)cc4)c3cc21 | > 10000 |  |  |  |
| CCOC(=O)CCCn1c(=O)oc2cc3ncnc(Nc4ccc(OCC)cc4)c3cc21 | > 10000 |  |  |  |
| COCCn1c(=O)oc2cc3ncnc(Nc4ccc(F)c(F)c4)c3cc21 | 26 | 17.6 | 1.1 |  |
| COCCn1c(=O)oc2cc3ncnc(Nc4ccc(OC)cc4)c3cc21 | 5100 | 33.5 | 11.7 |  |
| COCCn1c(=O)oc2cc3ncnc(Nc4ccc(Cl)cc4)c3cc21 | > 10000 |  |  |  |
| CCOC(=O)CCCn1c(=O)oc2cc3ncnc(Nc4ccc(OCc5ccccc5)c(Cl)c4)c3cc21 | > 10000 |  |  |  |
| CCOC(=O)CCCn1c(=O)oc2cc3ncnc(Nc4cccc(O)c4)c3cc21 | 8.7 | 7.6 | 3.7 | Activity [2]: inactive; Activity (Mus musculus [3]): Toxic; growth inhibition (GI) [4]: Active; Activity (Mus musculus [5]): Non-toxic |
| CCOC(=O)CCCn1c(=O)oc2cc3ncnc(Nc4ccc(OC(C)C)cc4)c3cc21 | 160 | 41.1 | 18.6 |  |
| COCCn1c(=O)oc2cc3ncnc(Nc4ccc(OCc5nccc(OCC(F)(F)F)c5C)cc4)c3cc21 | 340 |  |  |  |
| CCOC(=O)CCCn1c(=O)oc2cc3ncnc(Nc4ccc(OC)c(OC)c4)c3cc21 | > 10000 |  |  |  |
| COCCn1c(=O)oc2cc3ncnc(Nc4ccc(S(N)(=O)=O)cc4)c3cc21 | > 10000 |  |  |  |
| C#Cc1cccc(Nc2ncnc3cc(OCCOC)c(OCCOC)cc23)c1 [ERLOTINIB] |  |  |  | growth inhibition (GI) [4]: Active; Activity (Mus musculus [5]): Non-toxic |
| CCOC(=O)CCCn1c(=O)oc2cc3ncnc(Nc4ccc(C(=O)OCc5ccc(C#N)cc5)cc4)c3cc21 | > 10000 |  |  |  |
| CCOC(=O)CCCn1c(=O)oc2cc3ncnc(N[C@H](C)c4ccccc4)c3cc21 | > 10000 |  |  |  |
